melting point [°C]	SMILES
208.6	O=C(Nc1ccc(C(F)(F)F)cc1)c1ccc(-c2ncccc2Cl)cc1
197.8 to 197.9	O=C(Nc1ccc(C(F)(F)F)cc1)c1ccc(-c2ncccc2C(F)(F)F)cc1 [Example 1, N-(4-Trifluoromethyl-phenyl)-4-(3-trifluoromethyl-pyridin-2-yl)-benzamide]
